Test results published in US20230140983A1, “PYRIDAZINE DERIVATIVES FOR MODULATING NUCLEIC ACID SPLICING” (REMIX THERAPEUTICS INC., priority 2020, published 2023).
Read-outs that look alike come from different tables or passages of the source.

Legend:
Assay type in all cases: cell-based
HTT [1] = assay: Splicing assay (RT-qPCR on cell lysates) monitoring HTT splice variants: AJ and CJ mRNA; settings: concentration having 50% response
Protocol: Example 69: Exemplary Splicing Assay for Monitoring Expression Levels of Splice Variants
(§1) To set up 10 uL RT-qPCR reactions, cell lysates were transferred to 384-well qPCR plates containing the master mix according to the table below. The plates were sealed, gently vortexed, and spun down before the run. The volumes were adjusted accordingly in some instances where the reaction was carried in 20 uL. The table below summarizes the components of the RT-qPCR reactions:
(§2) The RT-qPCR reaction was performed using a QuantStudio (ThermoFisher) under the following fast cycling conditions. All samples and standards were analyzed at least in duplicate. In some instances, bulk room temperature (RT) step of 5-10 minutes was completed for all plates before proceeding with qPCR. The table below summarizes the PCR cycle:
(§3) The data analysis was performed by first determining the ΔCt vs the housekeeper gene. This ΔCt was then normalized against the DMSO control (ΔΔCt) and converted to RQ (relative quantification) using the 2^(−ΔΔCt) equation. The RQ were then converted to a percentage response by arbitrarily setting an assay window of 3.5 ΔCt for HTT-CJ and an assay window of 9 ΔCt for HTT-AJ. […] The percentage response was then fitted to the 4 parametric logistic equation to evaluate the concentration dependence of compound treatment. The increase in AJ mRNA is reported as AC50 (compound concentration having 50% response in AJ increase) while the decrease in CJ mRNA levels is reported as IC50 (compound concentration having 50% response in CJ decrease).

SMN2 = assay: Gene panel canonical junction qPCR assay, SMN2 CJ mRNA; settings: Table 9, CJ mRNA decrease, read-out: SMN2 IC50 (decrease in CJ mRNA levels)
Protocol: as §1, §2, §3
(§4) Additional studies were carried out for a larger panel of genes using the protocol provided above. The junction between flanking upstream and downstream exons was used to design canonical junction qPCR assays. At least one of the forward primer, reverse primer or the CY5-labeled 5′ nuclease probe (with 3′ quencher such as ZEN/Iowa Black FQ) was designed to overlap with the exon junction to capture the CJ mRNA transcript. BLAST was used to confirm the specificity of the probeset and parameters such as melting temperature, GC content, amplicon size, and primer dimer formation are considered during their design. Data for the decrease in CJ mRNA levels for three exemplary genes (HTT, SMN2, and Target C) analyzed in this panel are reported as IC50 (compound concentration having 50% response in CJ decrease).

HTT [2] = assay: Gene panel canonical junction qPCR assay, HTT CJ mRNA; settings: Table 9, CJ mRNA decrease, read-out: HTT IC50 (decrease in CJ mRNA levels)
Protocol: as §1, §2, §3, §4

Target C = assay: Gene panel canonical junction qPCR assay, Target C CJ mRNA; settings: Table 9, CJ mRNA decrease, read-out: Target C IC50 (decrease in CJ mRNA levels)
Protocol: as §1, §2, §3, §4

[3] = Table 7, decrease in CJ mRNA, read-out: HTT CJ AC50
[4] = Table 7, increase in AJ mRNA, read-out: HTT AJ AC50
[5] = Table 8, decrease in CJ mRNA, read-out: HTT CJ AC50
[6] = Table 8, increase in AJ mRNA, read-out: HTT AJ AC50

| SMILES | AC50 (HTT [1]; [3]) [µM] | AC50 (HTT [1]; [4]) [µM] | AC50 (HTT [1]; [5]) [µM] | AC50 (HTT [1]; [6]) [µM] | IC50 (SMN2) [µM] | IC50 (HTT [2]) [µM] | IC50 (Target C) [µM] |
| --- | --- | --- | --- | --- | --- | --- | --- |
| CC1(C)CC(Oc2ccc(-c3ccc(-c4cn[nH]c4)c4ncsc34)nn2)CCN1 (centres unmarked) [Compound 182] | < 0.5 | 0.5 to 5 | 1 to 10 | 1 to 10 | 0.1 to 1 | 1 to 10 | 1 to 10 |
| c1nc2c(-c3cn[nH]c3)ccc(-c3ccc(N4CCCC5(CNC5)C4)nn3)c2s1 [Compound 189] |  |  | > 10 | > 10 | > 10 | > 10 | > 10 |
| c1nc2c(-c3cn[nH]c3)ccc(-c3ccc(S[C@@H]4C[C@H]5CC[C@@H](C4)N5)nn3)c2s1 [Compound 200, 7-{6-[(exo)-8-azabicyclo[3.2.1]octan-3-ylsulfanyl]pyridazin-3-yl}-4-(1H-pyrazol-4-yl)-1,3-benzothiazole] |  |  | > 10 | > 10 | > 10 | > 10 | > 10 |
| c1n[nH]cc1-c1ccc(-c2ccc(N3CC4(CCNCC4)C3)nn2)c2[nH]ncc12 [Compound 229] |  |  | 1 to 10 | 1 to 10 | 1 to 10 | 1 to 10 | 1 to 10 |
| CN(c1ccc(-c2ccc(-c3cnn(C)c3)c3scnc23)nn1)C1CC(C)(C)NC(C)(C)C1 [Compound 175, N-methyl-6-[7-(1-methylpyrazol-4-yl)-1,3-benzothiazol-4-yl]-N-(2,2,6,6-tetramethylpiperidin-4-yl)pyridazin-3-amine] |  |  | > 10 | 1 to 10 | 1 to 10 | > 10 | > 10 |
| CN(c1ccc(-c2ccc(-c3cn[nH]c3)c3ncsc23)nn1)[C@H]1C[C@]2(C)CC[C@](C)(C1)N2 [Compound 204, (exo-)-N,1,5-trimethyl-N-[6-[4-(1H-pyrazol-4-yl)-1,3-benzothiazol-7-yl]pyridazin-3-yl]-8-azabicyclo[3.2.1]octan-3-amine] |  |  | < 0.1 | < 0.1 | < 0.1 | < 0.1 | < 0.1 |
| c1n[nH]cc1-c1ccc(-c2ccc(S[C@@H]3C[C@H]4CC[C@@H](C3)N4)nn2)c2[nH]ncc12 [Compound 221] |  |  | > 10 | > 10 | > 10 | > 10 | > 10 |
| Cc1[nH]ncc1-c1ccc(-c2ccc(N(C)C3CC(C)(C)NC(C)(C)C3)nn2)c2ncsc12 [Compound 176] |  |  | > 10 | 1 to 10 | > 10 | > 10 | > 10 |
| c1nc2c(-c3cn[nH]c3)ccc(-c3ccc(N4CC5(CCCNC5)C4)nn3)c2s1 [Compound 187, 7-(6-{2,6-diazaspiro [3.5]nonan-2-yl}pyridazin-3-yl)-4-(1H-pyrazol-4-yl)-1,3-benzothiazole] | > 5 | > 5 | > 10 | > 10 | 1 to 10 | > 10 | > 10 |
| CN(c1ccc(-c2ccc(-c3cn[nH]c3)c3ncsc23)nn1)C1CCNCC1 [Compound 222, N-methyl-N-(piperidin-4-yl)-6-[4-(1H-pyrazol-4-yl)-1,3-benzothiazol-7-yl]pyridazin-3-amine] |  |  | 1 to 10 | 1 to 10 | 0.1 to 1 | 1 to 10 | 1 to 10 |
| c1nc2c(-c3cn[nH]c3)ccc(-c3ccc(OC4CCNCC4)nn3)c2s1 [Compound 183] | > 5 | > 5 | 0.1 to 1 | 0.1 to 1 | 0.1 to 1 | 0.1 to 1 | 0.1 to 1 |
| Fc1cc(-c2ccc(O[C@@H]3C[C@H]4CC[C@@H](C3)N4)nn2)c2[nH]ncc2c1-c1cn[nH]c1 [Compound 216, 7-[6-[(exo)-8-azabicyclo[3.2.1]octan-3-yloxy]pyridazin-3-yl]-5-fluoro-4-(1H-pyrazol-4-yl)-1H-indazole] |  |  | < 0.1 | < 0.1 | < 0.1 | < 0.1 | 0.1 to 1 |
| c1nc2c(-c3cn[nH]c3)ccc(-c3ccc(N4CCC5(CCNC5)CC4)nn3)c2s1 [Compound 192] |  |  | > 10 | > 10 | > 10 | > 10 | > 10 |
